Experiments:
Assay type in all cases: biochemical
Details in all cases: ATP 100 μM
Tyk2 = Tyk2 (Homo sapiens (Human), UniProt P29597); experiment: Enzyme assay (Assay Example^a 1), Tyk2
JAK3 = JAK3 (Homo sapiens (Human), UniProt P52333); experiment: Enzyme assay (Assay Example^a 1), JAK3
JAK2 = JAK2 (Homo sapiens (Human), UniProt O60674); experiment: Enzyme assay (Assay Example^a 1), JAK2
JAK1 = JAK1 (Homo sapiens (Human), UniProt P23458); experiment: Enzyme assay (Assay Example^a 1), JAK1

Chain of Tyk2 (P29597 whole entry): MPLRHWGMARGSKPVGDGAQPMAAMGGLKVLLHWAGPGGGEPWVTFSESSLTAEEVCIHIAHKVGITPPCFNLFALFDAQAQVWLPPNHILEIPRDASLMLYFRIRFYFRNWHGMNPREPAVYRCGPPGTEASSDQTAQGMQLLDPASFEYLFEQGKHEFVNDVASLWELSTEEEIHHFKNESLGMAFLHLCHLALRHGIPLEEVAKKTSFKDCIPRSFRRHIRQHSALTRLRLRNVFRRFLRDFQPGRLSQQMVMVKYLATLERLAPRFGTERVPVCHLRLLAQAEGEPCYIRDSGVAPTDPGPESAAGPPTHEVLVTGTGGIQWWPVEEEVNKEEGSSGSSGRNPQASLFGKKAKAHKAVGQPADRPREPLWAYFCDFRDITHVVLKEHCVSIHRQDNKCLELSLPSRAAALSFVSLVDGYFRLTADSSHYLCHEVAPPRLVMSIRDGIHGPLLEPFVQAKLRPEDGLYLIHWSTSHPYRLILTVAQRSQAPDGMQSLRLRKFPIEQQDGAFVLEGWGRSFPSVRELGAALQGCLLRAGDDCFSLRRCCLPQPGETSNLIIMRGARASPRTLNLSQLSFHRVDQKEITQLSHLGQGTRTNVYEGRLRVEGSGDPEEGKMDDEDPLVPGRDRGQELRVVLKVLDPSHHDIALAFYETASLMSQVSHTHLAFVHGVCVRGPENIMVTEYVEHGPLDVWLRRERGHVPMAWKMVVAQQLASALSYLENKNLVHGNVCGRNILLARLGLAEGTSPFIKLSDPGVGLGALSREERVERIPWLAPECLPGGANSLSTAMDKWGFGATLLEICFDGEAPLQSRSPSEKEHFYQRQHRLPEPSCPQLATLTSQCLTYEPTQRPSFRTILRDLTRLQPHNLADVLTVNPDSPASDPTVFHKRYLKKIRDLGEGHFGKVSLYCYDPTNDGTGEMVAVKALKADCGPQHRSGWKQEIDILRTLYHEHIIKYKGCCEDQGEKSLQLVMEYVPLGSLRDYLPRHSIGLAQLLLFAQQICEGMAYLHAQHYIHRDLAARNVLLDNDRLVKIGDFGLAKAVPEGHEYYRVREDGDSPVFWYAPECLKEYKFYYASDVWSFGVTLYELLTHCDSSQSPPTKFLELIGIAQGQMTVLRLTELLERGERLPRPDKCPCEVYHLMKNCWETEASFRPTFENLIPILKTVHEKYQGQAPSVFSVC
Chain of JAK3 (P52333 whole entry): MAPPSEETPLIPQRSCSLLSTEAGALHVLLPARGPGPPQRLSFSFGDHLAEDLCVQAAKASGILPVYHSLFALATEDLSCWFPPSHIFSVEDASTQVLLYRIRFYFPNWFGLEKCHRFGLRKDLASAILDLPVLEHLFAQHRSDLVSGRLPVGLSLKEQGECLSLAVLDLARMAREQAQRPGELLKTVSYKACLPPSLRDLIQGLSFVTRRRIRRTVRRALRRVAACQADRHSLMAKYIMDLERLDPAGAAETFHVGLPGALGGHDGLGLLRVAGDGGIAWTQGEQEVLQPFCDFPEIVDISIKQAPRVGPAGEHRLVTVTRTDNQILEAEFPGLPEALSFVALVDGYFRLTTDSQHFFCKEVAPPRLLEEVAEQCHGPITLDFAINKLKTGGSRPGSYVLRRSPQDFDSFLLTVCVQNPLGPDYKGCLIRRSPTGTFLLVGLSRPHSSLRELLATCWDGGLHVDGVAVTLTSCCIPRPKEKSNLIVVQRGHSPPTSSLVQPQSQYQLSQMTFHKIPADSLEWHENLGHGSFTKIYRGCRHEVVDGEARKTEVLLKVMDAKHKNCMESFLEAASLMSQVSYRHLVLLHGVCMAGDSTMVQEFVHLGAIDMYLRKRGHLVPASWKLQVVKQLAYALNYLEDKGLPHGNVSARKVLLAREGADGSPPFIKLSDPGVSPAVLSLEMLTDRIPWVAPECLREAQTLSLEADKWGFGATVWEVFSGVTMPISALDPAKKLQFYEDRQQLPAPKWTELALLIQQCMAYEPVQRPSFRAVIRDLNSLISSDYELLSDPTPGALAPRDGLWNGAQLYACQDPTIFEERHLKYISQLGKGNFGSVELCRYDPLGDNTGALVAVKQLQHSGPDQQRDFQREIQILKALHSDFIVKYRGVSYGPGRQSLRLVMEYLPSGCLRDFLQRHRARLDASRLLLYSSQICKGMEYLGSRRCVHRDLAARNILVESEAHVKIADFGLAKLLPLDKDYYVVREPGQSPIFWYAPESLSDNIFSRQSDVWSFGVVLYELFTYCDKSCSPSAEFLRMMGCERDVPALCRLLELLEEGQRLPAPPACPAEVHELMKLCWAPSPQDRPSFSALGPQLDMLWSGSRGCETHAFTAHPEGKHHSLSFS

Structure (SMILES)	IC50 (Tyk2; Table^a 154)	IC50 (JAK3; Table^a 154)	IC50 (JAK2; Table^a 154)	IC50 (JAK1; Table^a 154)	IC50 (Tyk2)	IC50 (JAK3)	IC50 (JAK2)	IC50 (JAK1)
FC(F)(F)c1nc2cc(NC[C@H]3CC[C@H](c4nnn5cnc6[nH]ccc6c45)CC3)ccc2[nH]1 [compound 175, N-{[trans-4-(7H-pyrrolo[3,2-e][1,2,3]triazolo[1,5-c]pyrimidin-1-yl)cyclohexyl]methyl}-2-(trifluoromethyl)-1H-benzo[d]imidazol-5-amine]	0.045 µM	0.34 µM	0.0074 µM	0.0056 µM	–	–	–	–
O=C(CC(F)(F)F)N1CCCC(c2nnn3cnc4[nH]ccc4c23)C1 (racemic) [compound 17]	0.57 µM	2.1 µM	0.076 µM	0.029 µM	–	–	–	–
CCOC(=O)C=C1CCC(c2nnn3cnc4[nH]ccc4c23)CC1 (stereo not drawn) [compound 436, ethyl 2-[4-(7H-pyrrolo[3,2-e][1,2,3]triazolo[1,5-c]pyrimidin-1-yl)cyclohexylidene]acetate]	–	–	–	–	> 1 µM	> 1 µM	0.17 µM	0.035 µM
CC(C)(O)c1cn(C[C@H]2CC[C@H](c3nnn4cnc5[nH]ccc5c34)CC2)nn1 [compound 370, 2-(1-{[trans-4-(7H-Pyrrolo[3,2-e][1,2,3]triazolo[1,5-c]pyrimidin-1-yl)cyclohexyl]methyl}-1H-1,2,3-triazol-4-yl)propan-2-ol]	–	–	–	–	> 1 µM	0.59 µM	0.097 µM	0.0074 µM
N#CCC(=O)NC[C@H]1CC[C@H](c2nnn3cnc4[nH]ccc4c23)CC1 [compound 372, N-{[trans-4-(7H-Pyrrolo[3,2-e][1,2,3]triazolo[1,5-c]pyrimidin-1-yl)cyclohexyl]methyl}-2-cyanoacetamide]	–	–	–	–	0.41 µM	0.23 µM	0.016 µM	0.0041 µM
FC(F)(F)C(F)(F)CN[C@H]1CC[C@@H](c2nnn3cnc4[nH]ccc4c23)CC1 [383a, cis-N-(2,2,3,3,3-pentafluoropropyl)-4-(7H-pyrrolo[3,2-e][1,2,3]triazolo[1,5-c]pyrimidin-1-yl)cyclohexanamine]	–	–	–	–	> 1 µM	> 1 µM	0.37 µM	0.09 µM
Cc1c(CN2CCC(c3nnn4cnc5[nH]ccc5c34)CC2)c(Cl)nn1CC(F)(F)F [compound 374, 1-{1-[(3-Chloro-5-methyl-1-(2,2,2-trifluoroethyl)-1H-pyrazol-4-yl)methyl]piperidin-4-yl}-7H-pyrrolo[3,2-e][1,2,3]triazolo[1,5-c]pyrimidine]	–	–	–	–	> 1 µM	> 1 µM	0.18 µM	0.038 µM
CN(CCC#N)C[C@H]1CC[C@H](c2nnn3cnc4[nH]ccc4c23)CC1 [compound 302, 3-({[trans-4-(7H-pyrrolo[3,2-e][1,2,3]triazolo[1,5-c]pyrimidin-1-yl)cyclohexyl]methyl}(methyl)amino)propanenitrile]	–	–	–	–	0.36 µM	0.49 µM	0.029 µM	0.012 µM
CC1CC1NC[C@H]1CC[C@H](c2nnn3cnc4[nH]ccc4c23)CC1 (stereo partly drawn) [compound 291, N-{[trans-4-(7H-pyrrolo[3,2-e][1,2,3]triazolo[1,5-c]pyrimidin-1-yl)cyclohexyl]methyl}-2-methylcyclopropanamine]	–	–	–	–	0.14 µM	0.67 µM	0.1 µM	0.0053 µM
N#CC1CN(C(=O)[C@H]2CC[C@H](c3nnn4cnc5[nH]ccc5c34)CC2)C1 [compound 363, 1-[trans-4-(7H-pyrrolo[3,2-e][1,2,3]triazolo[1,5-c]pyrimidin-1-yl)cyclohexanecarbonyl]azetidine-3-carbonitrile]	–	–	–	–	> 1 µM	> 1 µM	0.29 µM	0.044 µM
CN(C)[C@H]1CC[C@H](c2nnn3cnc4[nH]ccc4c23)CC1 [397b, trans-N,N-dimethyl-4-(7H-pyrrolo[3,2-e][1,2,3]triazolo[1,5-c]pyrimidin-1-yl)cyclohexanamine]	–	–	–	–	0.8 µM	> 1 µM	0.21 µM	0.023 µM
c1cc2c(ncn3nnc([C@H]4CC[C@H](CNC5CSC5)CC4)c23)[nH]1 [compound 344, N-{[trans-4-(7H-pyrrolo[3,2-e][1,2,3]triazolo[1,5-c]pyrimidin-1-yl)cyclohexyl]methyl}thietan-3-amine]	–	–	–	–	0.39 µM	0.52 µM	0.068 µM	0.012 µM
CC1(O)CN(C[C@H]2CC[C@H](c3nnn4cnc5[nH]ccc5c34)CC2)C1 [compound 422, 1-{[trans-4-(7H-pyrrolo[3,2-e][1,2,3]triazolo[1,5-c]pyrimidin-1-yl)cyclohexyl]methyl}-3-methylazetidin-3-ol]	–	–	–	–	0.13 µM	> 1 µM	0.051 µM	0.0028 µM
FC(F)(F)C1CCC(N2CCC(c3nnn4cnc5[nH]ccc5c34)CC2)CC1 (single isomer, unassigned) [56a]	> 1 µM	> 1 µM	> 1 µM	0.5 µM	–	–	–	–
OC(CN[C@H]1CC[C@H](c2nnn3cnc4[nH]ccc4c23)CC1)(c1cccnc1)C(F)(F)F (stereo partly drawn) [385b, 3-{[trans-4-(7H-pyrrolo[3,2-e][1,2,3]triazolo[1,5-c]pyrimidin-1-yl)cyclohexyl]amino}-1,1,1-trifluoro-2-(pyridin-3-yl)propan-2-ol]	–	–	–	–	0.21 µM	0.18 µM	0.031 µM	0.0019 µM
O=S(=O)(C[C@H]1CC[C@H](c2nnn3cnc4[nH]ccc4c23)CC1)C(F)(F)F [compound 368, 1-(trans-4-{[(Trifluoromethyl)sulfonyl]methyl}cyclohexyl)-7H-pyrrolo[3,2-e][1,2,3]triazolo[1,5-c]pyrimidine]	–	–	–	–	0.03 µM	0.37 µM	0.0061 µM	0.0013 µM
c1cnc2cc(CN3CCC(c4nnn5cnc6[nH]ccc6c45)CC3)ccc2n1 [compound 218, 1-[1-(quinoxalin-6-ylmethyl)piperidin-4-yl]-7H-pyrrolo[3,2-e][1,2,3]triazolo[1,5-c]pyrimidine]	–	–	–	–	> 1 µM	> 1 µM	0.14 µM	0.028 µM
N#CC1(c2ccccc2)CCN(C[C@H]2CC[C@H](c3nnn4cnc5[nH]ccc5c34)CC2)CC1 [compound 310, 1-{[trans-4-(7H-pyrrolo[3,2-e][1,2,3]triazolo[1,5-c]pyrimidin-1-yl)cyclohexyl]methyl}-4-phenylpiperidine-4-carbonitrile]	–	–	–	–	> 1 µM	> 1 µM	0.38 µM	0.071 µM
N#CCNC(=O)C[C@H]1CC[C@H](c2nnn3cnc4[nH]ccc4c23)CC1 [443b, 2-[trans-4-(7H-Pyrrolo[3,2-e][1,2,3]triazolo[1,5-c]pyrimidin-1-yl)cyclohexyl]-N-(cyanomethyl)acetamide]	–	–	–	–	> 1 µM	0.34 µM	0.03 µM	0.01 µM
c1cc2c(ncn3nnc([C@H]4CC[C@H](CN5CCCC5)CC4)c23)[nH]1 [compound 287, 1-[trans-4-(pyrrolidin-1-ylmethyl)cyclohexyl]-7H-pyrrolo[3,2-e][1,2,3]triazolo[1,5-c]pyrimidine]	–	–	–	–	0.33 µM	> 1 µM	0.077 µM	0.0065 µM
O=C([C@H]1CC[C@H](c2nnn3cnc4[nH]ccc4c23)CC1)N1CC(O)C1 [compound 361, [trans-4-(7H-pyrrolo[3,2-e][1,2,3]triazolo[1,5-c]pyrimidin-1-yl)cyclohexyl](3-hydroxyazetidin-1-yl)methanone]	–	–	–	–	> 1 µM	> 1 µM	0.25 µM	0.089 µM

— patent US9216999B2, “Substituted pyrrolo[2,3-h][1,6]naphthyridines and compositions thereof as JAK inhibitors” (priority 2011, dated 2015)
